# What was measured:
# Type in all cases: in vivo
# [1] = test system: white fly (Bemisia tabaci, resistant strain); test: Bemisia tabaci test (resistant strain), cotton leaf dip; settings: 1000 ppm
# Procedure: (§1) To prepare a suitable active compound preparation 1 part by weight of the active compound is mixed with the given amount of solvent and emulsifier and the concentrate is diluted to the desired concentration with water containing emulsifier.
# Leaf sections of the cotton plant (Gossypium hirsutum) are treated by dipping in the active compound preparation at the desired concentration and after drying of the coating are infected with adults of the white fly (Bemisia tabaci, resistant strain).
# (§2) After the desired time the death rate in % is determined. Here 100% means that all animals were killed; 0% means that no animals were killed.
# [2] = test system: black bean aphid (Aphis fabae); test: Aphis fabae test (seed application), Example J; settings: 90 g ai/unit (100,000 seeds), sugar beet seed treatment
# Procedure: (§3) To prepare a suitable active compound preparation 1 part by weight of the active compound is mixed with the given amount of solvent and emulsifier and the concentrate is diluted to the desired concentration with water.
# Sugar beet seed (Beta vulgaris) is treated with the active compound preparation and sown into soil. After ca. 4 week the beet plants are infected with the black bean aphid (Aphis fabae).
# (§4) After the desired time the death rate in % is determined. Here 100% means that all aphids were killed; 0% means that no aphids were killed.
# [3] = test system: caterpillars of the fall army worm (Spodoptera frugiperda); test: Spodoptera frugiperda test (spray treatment); settings: 500 g/ha; spray on maize leaf sections; after 7 d
# Procedure: as §1
# Maize leaf sections (Zea mays) are sprayed with an active compound preparation at the desired concentration and after drying treated with caterpillars of the fall army worm (Spodoptera frugiperda).
# After the desired time the activity in % is determined. Here 100% means that all caterpillars were killed; 0% means that no caterpillars were killed.
# [4] = test system: adult Ctenocephalides felis, strain "Georgi"; test: Test with cat fleas/oral administration; settings: 100 ppm in citrated bovine blood
# Procedure: To prepare a suitable formulation a suitable active compound solution was prepared from 10 mg active compound with 0.5 ml DMSO. 10 μl of this formulation was added to 2 ml citrated bovine blood and stirred.
# 20 fasting adult fleas (Ctenocephalides felis, strain “Georgi”) were placed in a chamber (Ø5 cm) that is closed with cheese cloth at the top and bottom. A metal cylinder the underside of which is closed with Parafilm is placed on the chamber. The cylinder contains the 2 ml blood-active compound formulation which can be consumed by the fleas through the Parafilm membrane.
# Whilst the blood is warmed to 37° C. the region of the flea chamber is at room temperature. Controls were carried out with the same volume of DMSO without compound addition.
# After the desired time the death rate in % is determined. Here 100% means that all fleas were killed; 0% means that no fleas were killed.
# [5] = test system: adult Musca domestica, strain WHO(N), sensitive; test: Test with flies; settings: 100 ppm; after 48 hours
# Procedure: 10 mg of the active compound are dissolved in 0.5 ml dimethylsulphoxide, lower concentrations are prepared by dilution with water.
# 0.2 ml of this active compound preparation is pipetted onto a sponge (ca. Ø1.5 cm) that has been wetted with 0.8 ml sugar solution. The sponge and 10 test animals are transferred to a dish (4×4 cm, h 2 cm) and covered.
# After 48 hours the activity of the active compound preparation is determined. Here 100% means that all flies were killed; 0% means that no flies were killed.
# [6] = test system: codling moth larvae (Cydia pomonella); test: Cydia pomonella test, treated feed; settings: 20 ppm in feed
# Procedure: as §3
# The active compound preparation was mixed with feed. The concentration given relates to the amount of active compound per unit volume feed (mg/l=ppm). The treated feed is placed in Petri dishes and infected with codling moth larvae (Cydia pomonella).
# After the desired time the death rate in % is determined. Here 100% means that all larvae were killed; 0% means that no larvae were killed.
# [7] = test system: adults of the Colorado beetle (Leptinotarsa decemlineata); test: Leptinotarsa decemlineata adults test; settings: 60 g/ha, spray on potato leaves
# Procedure: as §1
# Leaves of potato plant (Solanum tuberosum) that are infested with adults of the Colorado beetle, (Leptinotarsa decemlineata) are treated by spraying with the active compound at the desired concentration.
# After the desired time the activity in % is determined. Here 100% means that all beetles were killed; 0% means that no beetles were killed.
# [8] = test system: caterpillars of the fall army worm (Spodoptera frugiperda); test: Spodoptera frugiperda test, treated soil (Example A1); settings: 4 ppm in soil, cotton plant
# Procedure: as §3
# The active compound preparation is mixed with earth. The concentration given relates to the amount of active compound per unit volume soil (mg/l=ppm). The treated earth is filled into pots and planted with a cotton plant (Gossypium hirsutum). After a week infection is carried out with caterpillars of the fall army worm (Spodoptera frugiperda).
# After the desired time the activity in % is determined. Here 100% means that no eating damage is visible, 0% means that eating damage on the treated plants corresponds to that of the controls.
# [9] = test system: horse chestnut scale (Pulvinaria regalis); test: Pulvinaria regalis test, spraying of chestnut trees (Example B1); settings: 100 ppm, spray on chestnut trees
# Procedure: as §1
# Chestnut trees (Castaney vesca) that are infested with horse chestnut scale (Pulvinaria regalis) are treated by spraying with the active compound preparation at the desired concentration.
# as §2
# [10] = test system: horse chestnut scale (Pulvinaria regalis); test: Pulvinaria regalis test, preparation poured onto chestnut trees (Example C1); settings: 10 mg per plant, poured on
# Procedure: as §3
# The active compound preparation was poured onto chestnut trees (Castanea vesca). The concentration given relates to the amount of active compound per plant. After a defined time infection was carried out with horse chestnut scale (Pulvinaria regalis).
# as §2
# [11] = test system: termites (Odontotermes sp.); test: Odontotermes test, open land (spray treatment); settings: 240 g/ha, spray on obeche wood
# Procedure: (§5) To prepare a suitable active compound preparation 1 part by weight of the active compound is mixed with the given amount of water to the desired concentration.
# Areas of wood of the obeche tree (Triplochiton scleroxylon) are treated by spraying with the active compound preparation at the desired concentration and infected with termites (Odontotermes sp.).
# After the desired time the activity in % is determined. Here 100% means that the wood was not infested by termites; 0% means that the wood was infested by termites.
# [12] = test system: adults of the green stink bug (Piezodorus guildingi); test: Piezodorus guildingi test, open land (spray treatment); settings: 300 g/ha, soy bean plants
# Procedure: as §5
# Soy bean plants (Glycine max) infested with the adults of the green stink bug (Piezodorus guildingi) are treated with an active compound preparation at the desired concentration.
# After the desired time the death rate in % is determined. Here 100% means that all bugs were killed; 0% means that no bugs were killed.
# [13] = test system: mealy cabbage aphid (Brevicoryne brassicae); test: Brevicoryne brassicae test, open land (spray treatment), Example J1; settings: 300 g/ha, spray on cabbage plants
# Procedure: as §5
# Cabbage plants (Brassica oleracea) that are infested with all stages of the mealy cabbage aphid (Brevicoryne brassicae) are sprayed with an active compound preparation at the desired concentration.
# as §4
# [14] = test system: black bean aphid (Aphis fabae); test: Aphis fabae test (seed application), Example D1; settings: 90 g per unit (100,000 seeds), sugar beet seed
# Procedure: as §3
# Sugar beet seed (Beta vulgaris) is treated with the active compound preparation and sown into the earth. After ca. 4 weeks the beet plants are infected with the black bean aphid (Aphis fabae).
# as §4
Structure (SMILES),Death rate in % after 3 d [1] [%],Activity in % after 7 d [2] [%],Death rate in % after 7 d [3] [%],death rate after 2 days [4] [%],activity [5] [%],death rate after 7 days [6] [%],activity after 7 days [7] [%],activity (eating damage) after 7 days [8] [%],death rate after 30 days [9] [%],death rate after 30 days [10] [%],activity after 45 days ([11]; after 45 days) [%],death rate after 11 days [12] [%],death rate after 22 days [13] [%],death rate after 7 days [14] [%],activity after 65 days ([11]; after 65 days) [%]
CN(Cc1ccc(Cl)nc1)C1=CC(=O)OC1 [Compound 84],78,100,100,100,80,100,100,98,100,100,99,100,99,–,–
O=C1C=C(N(Cc2ccc(Cl)nc2)C2CC2)CO1 [Compound 88],–,–,100,–,–,90,100,–,95,–,–,–,99,100,95
